Source: PubChem BioAssay AID1963429 (Molecular Pharmacology Branch, DTP, NCI, 2024)
Several values for one entry are separate records, joined by “and”; a condition that tells them apart may be missing. Equal values may be shown once.

System: 126254-015-R-J1-PDC complex spheroid growth, % test/control
Assay: Anticancer human tumor 126254-015-R-J1-PDC patient-derived soft tissue sarcoma cell line growth inhibition [Asc]
Details: for viability, T/C: stronger effect = lower value
How it was run: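 Stromal components (HUVEC and hMSC) are co-assembled with the cancer cells into multicellular spheroids. Drugs are then added singly or paired, at concentrations falling by half-log increments from a clinically achievable maximum, capped at 10 microM without known Cmax.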

[1] = curve of first compound, second compound 0.1 µM
[2] = curve of first compound, second compound 0.316 µM
[3] = curve of first compound, second compound 1 µM
[4] = second compound 0.1 µM, first compound 0.0316 µM
[5] = second compound 0.1 µM, first compound 0.1 µM
[6] = second compound 0.1 µM, first compound 0.316 µM
[7] = second compound 0.1 µM, first compound 1 µM
[8] = second compound 0.1 µM, first compound 3.16 µM
[9] = second compound 0.1 µM, first compound 10 µM
[10] = second compound 0.316 µM, first compound 0.0316 µM
[11] = second compound 0.316 µM, first compound 0.1 µM
[12] = second compound 0.316 µM, first compound 0.316 µM
[13] = second compound 0.316 µM, first compound 1 µM
[14] = second compound 0.316 µM, first compound 3.16 µM
[15] = second compound 0.316 µM, first compound 10 µM
[16] = second compound 1 µM, first compound 0.0316 µM
[17] = second compound 1 µM, first compound 0.1 µM
[18] = second compound 1 µM, first compound 0.316 µM
[19] = second compound 1 µM, first compound 1 µM
[20] = second compound 1 µM, first compound 3.16 µM
[21] = second compound 1 µM, first compound 10 µM
[22] = curve of first compound, second compound 0.01 µM
[23] = curve of first compound, second compound 0.0316 µM
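Note: spheroids exposed to compound for seven days.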
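Throughout, for viability, T/C: 100% = DMSO vehicle control wells.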

`C#Cc1c(F)ccc2cc(O)cc(-c3ncc4c(N5CC6CCC(C5)N6)nc(OCC56CCCN5CC(F)C6)nc4c3F)c12` (stereo not given) + Cc1c(S(C)(=O)=O)c(-c2cc(F)cc(N3CCN(c4ccc(NS(=O)(=O)c5ccc(NC(CCN6CCC(C(=O)OCCCP(=O)(O)O)CC6)CSc6ccccc6)c(S(=O)(=O)C(F)(F)F)c5)cc4)CC3)c2)c(-c2ccc(Cl)cc2)n1C(C)C was tested, and the IC50 [1] was greater than 10 µM, the IC50 [2] was greater than 10 µM and the IC50 [3] was 6.58 µM. For the same molecule, the IC50 (curve of first compound, second compound 3.16 µM) was 7.17 µM, the IC50 (curve of first compound, second compound 10 µM) was 9.19 µM and the viability, T/C [4] was 85.4%. The viability, T/C [5] was 92.8%, the viability, T/C [6] was 90.4% and the viability, T/C [7] was 80.9%. For the same molecule, the viability, T/C [8] was 72.4%, the viability, T/C [9] was 59.9% and the viability, T/C [10] was 88.5%. For the same molecule, the viability, T/C [11] was 86%, the viability, T/C [12] was 80.9% and the viability, T/C [13] was 79.2%. The viability, T/C [14] was 72.4%, the viability, T/C [15] was 54.5% and the viability, T/C [16] was 84%. For the same molecule, the viability, T/C [17] was 92.2%, the viability, T/C [18] was 73.8% and the viability, T/C [19] was 81.9%. For the same molecule, the viability, T/C [20] was 72.3%, the viability, T/C [21] was 37.4% and the viability, T/C (second compound 3.16 µM, first compound 0.0316 µM) was 82.6%. For the same molecule, the viability, T/C (second compound 3.16 µM, first compound 0.1 µM) was 90.8%, the viability, T/C (second compound 3.16 µM, first compound 0.316 µM) was 83.4% and the viability, T/C (second compound 3.16 µM, first compound 1 µM) was 79.5%. For the same molecule, the viability, T/C (second compound 3.16 µM, first compound 3.16 µM) was 65.8%, the viability, T/C (second compound 3.16 µM, first compound 10 µM) was 43.6% and the viability, T/C (second compound 10 µM, first compound 0.0316 µM) was 87.1%. The viability, T/C (second compound 10 µM, first compound 0.1 µM) was 88.4%, the viability, T/C (second compound 10 µM, first compound 0.316 µM) was 81.2% and the viability, T/C (second compound 10 µM, first compound 1 µM) was 75.5%. The viability, T/C (second compound 10 µM, first compound 3.16 µM) was 75% and the viability, T/C (second compound 10 µM, first compound 10 µM) was 47.8%.

With `Cc1c(S(C)(=O)=O)c(-c2cc(F)cc(N3CCN(c4ccc(NS(=O)(=O)c5ccc(NC(CCN6CCC(C(=O)OCCCP(=O)(O)O)CC6)CSc6ccccc6)c(S(=O)(=O)C(F)(F)F)c5)cc4)CC3)c2)c(-c2ccc(Cl)cc2)n1C(C)C` (stereo not given) the viability, T/C (compound 0.1 µM) was 86.8% [middle of 14 runs], the viability, T/C (compound 0.316 µM) was 85.8% [middle of 13 runs] and the viability, T/C (compound 1 µM) was 84.3% [middle of 14 runs]. For the same molecule, the viability, T/C (compound 3.16 µM) was 87.8% [middle of 14 runs], the viability, T/C (compound 10 µM) was 81.8% [middle of 14 runs] and the IC50 (compound alone, run of 09/27/2022) was greater than 10 µM.

Work on `CCN1C(C(=O)NC23CCC(C(=O)O)(CC2)CC3)C(c2cccc(Cl)c2F)C2(C(=O)Nc3cc(Cl)ccc32)C12CCCCC2` (stereo not given) + CNC(C)C(=O)NC1CN(S(=O)(=O)c2cccc(S(=O)(=O)N3CCC4CCC(C(=O)NC(c5ccccc5)c5ccccc5)N4C(=O)C(NC(=O)C(C)NC)C3)c2)CCC2CCC(C(=O)NC(c3ccccc3)c3ccccc3)N2C1=O yielded an IC50 [22] greater than 3 µM, an IC50 [23] greater than 3 µM and an IC50 [1] greater than 3 µM. For the same molecule, the IC50 [2] was greater than 3 µM, the IC50 [3] was greater than 3 µM and the viability, T/C (second compound 0.01 µM, first compound 0.00949 µM) was 88.3%. It also gave a viability, T/C (second compound 0.01 µM, first compound 0.03 µM) of 86.9%, a viability, T/C (second compound 0.01 µM, first compound 0.0949 µM) of 87.7% and a viability, T/C (second compound 0.01 µM, first compound 0.3 µM) of 77.1%. For the same molecule, the viability, T/C (second compound 0.01 µM, first compound 0.949 µM) was 79.8%, the viability, T/C (second compound 0.01 µM, first compound 3 µM) was 81.2% and the viability, T/C (second compound 0.0316 µM, first compound 0.00949 µM) was 74.4%. The viability, T/C (second compound 0.0316 µM, first compound 0.03 µM) was 69.4%, the viability, T/C (second compound 0.0316 µM, first compound 0.0949 µM) was 70.2% and the viability, T/C (second compound 0.0316 µM, first compound 0.3 µM) was 74.5%. For the same molecule, the viability, T/C (second compound 0.0316 µM, first compound 0.949 µM) was 66.4%, the viability, T/C (second compound 0.0316 µM, first compound 3 µM) was 72.3% and the viability, T/C (second compound 0.1 µM, first compound 0.00949 µM) was 66%. It also gave a viability, T/C (second compound 0.1 µM, first compound 0.03 µM) of 70%, a viability, T/C (second compound 0.1 µM, first compound 0.0949 µM) of 67.4% and a viability, T/C (second compound 0.1 µM, first compound 0.3 µM) of 64.6%. For the same molecule, the viability, T/C (second compound 0.1 µM, first compound 0.949 µM) was 67.7%, the viability, T/C (second compound 0.1 µM, first compound 3 µM) was 66.5% and the viability, T/C (second compound 0.316 µM, first compound 0.00949 µM) was 54.8%. The viability, T/C (second compound 0.316 µM, first compound 0.03 µM) was 68%, the viability, T/C (second compound 0.316 µM, first compound 0.0949 µM) was 60.7% and the viability, T/C (second compound 0.316 µM, first compound 0.3 µM) was 57.2%. For the same molecule, the viability, T/C (second compound 0.316 µM, first compound 0.949 µM) was 61%, the viability, T/C (second compound 0.316 µM, first compound 3 µM) was 73% and the viability, T/C (second compound 1 µM, first compound 0.00949 µM) was 52.8%. The viability, T/C (second compound 1 µM, first compound 0.03 µM) was 60.8%, the viability, T/C (second compound 1 µM, first compound 0.0949 µM) was 61.1% and the viability, T/C (second compound 1 µM, first compound 0.3 µM) was 64%. The viability, T/C (second compound 1 µM, first compound 0.949 µM) was 61.5% and the viability, T/C (second compound 1 µM, first compound 3 µM) was 63.2%.

In the case of `O=C(c1ccc(F)c(F)c1Nc1ccc(I)cc1F)N1CC(O)([C@@H]2CCCCN2)C1`, the viability, T/C (compound 0.00316 µM) is reported as 103% and 94.5% and 96.1%, the viability, T/C (compound 0.01 µM) is reported as 109% (2×) and 105% and the viability, T/C (compound 0.0316 µM) is reported as 102% (2×) and 93.1%. The viability, T/C (compound 0.1 µM) was 91.6% and 90.3% and 101%, the viability, T/C (compound 0.316 µM) was 66.5% and 70.8% and 78.6% and the viability, T/C (compound 1 µM) was 42.6% and 42.9% and 55.1%. For the same molecule, the IC50 (curve of compound) was 0.699 µM and 0.755 µM and > 1 µM.

`COc1c(OCCCN2CCOCC2)ccc2c3n(c(=NC(=O)c4cnc(N)nc4)nc12)CCN3` was tested, and the viability, T/C (compound 0.00316 µM) was 98.8% and 93% and 88.2%, the viability, T/C (compound 0.01 µM) was 87.4% and 90.6% and 95.3% and the viability, T/C (compound 0.0316 µM) was 60.5% and 65.2% and 66.9%. The viability, T/C (compound 0.1 µM) was 37.3% and 29.9% and 45.1%, the viability, T/C (compound 0.316 µM) was 16.1% and 17.7% and 24.1% and the viability, T/C (compound 1 µM) was 9.83% and 12.4% and 16.3%. The IC50 (curve of compound) was 0.0536 µM and 0.0525 µM and 0.076 µM.

For `C=C(F)C(=O)N1CCN(c2nc(OCC3CCCN3C)nc3c2CCN(c2cccc4cccc(Cl)c24)C3)CC1CC#N` (stereo not given) + CNC(C)C(=O)NC1CN(S(=O)(=O)c2cccc(S(=O)(=O)N3CCC4CCC(C(=O)NC(c5ccccc5)c5ccccc5)N4C(=O)C(NC(=O)C(C)NC)C3)c2)CCC2CCC(C(=O)NC(c3ccccc3)c3ccccc3)N2C1=O, the IC50 [22] was 2.55 µM, the IC50 [23] was 2.2 µM and the IC50 [1] was 1.34 µM. The IC50 [2] was 1.21 µM, the IC50 [3] was 0.505 µM and the viability, T/C (second compound 0.01 µM, first compound 0.0316 µM) was 80%. The viability, T/C (second compound 0.01 µM, first compound 0.1 µM) was 89.3%, the viability, T/C (second compound 0.01 µM, first compound 0.316 µM) was 80.1% and the viability, T/C (second compound 0.01 µM, first compound 1 µM) was 74.8%. The viability, T/C (second compound 0.01 µM, first compound 3.16 µM) was 44.3%, the viability, T/C (second compound 0.01 µM, first compound 10 µM) was 0.18% and the viability, T/C (second compound 0.0316 µM, first compound 0.0316 µM) was 71.4%. For the same molecule, the viability, T/C (second compound 0.0316 µM, first compound 0.1 µM) was 71%, the viability, T/C (second compound 0.0316 µM, first compound 0.316 µM) was 71.4% and the viability, T/C (second compound 0.0316 µM, first compound 1 µM) was 63.9%. It also gave a viability, T/C (second compound 0.0316 µM, first compound 3.16 µM) of 43.5%, a viability, T/C (second compound 0.0316 µM, first compound 10 µM) of 0.14% and a viability, T/C [4] of 61%. The viability, T/C [5] was 67.3%, the viability, T/C [6] was 64.6% and the viability, T/C [7] was 53.2%. It also gave a viability, T/C [8] of 35.2%, a viability, T/C [9] of 0.14% and a viability, T/C [10] of 65.4%. The viability, T/C [11] was 66.1%, the viability, T/C [12] was 64% and the viability, T/C [13] was 45%. For the same molecule, the viability, T/C [14] was 40.7%, the viability, T/C [15] was 0.15% and the viability, T/C [16] was 58.7%. The viability, T/C [17] was 59.2%, the viability, T/C [18] was 57.5% and the viability, T/C [19] was 40.4%. It also gave a viability, T/C [20] of 27.4% and a viability, T/C [21] of 0.2%.
